Results as given in patent US10940139B2, “Compounds that interact with the Ras superfamily for the treatment of cancers, inflammatory diseases, rasopathies, and fibrotic disease” (Shy Therapeutics LLC, priority 2017, dated 2021).

Assays:
Rac-1 = Rac-1 (Homo sapiens (Human), UniProt P63000); assay: Rac inhibition assay (labeled GTP); format: binding; settings: read-out: Rac-1 % Inh.
Rho-A = Rho-A (Homo sapiens (Human), UniProt P61586); assay: Rho inhibition assay (labeled GTP); format: binding; settings: read-out: Rho-A % Inh.
Rho-A, sequence (P61586 whole entry, the tested form may be a part): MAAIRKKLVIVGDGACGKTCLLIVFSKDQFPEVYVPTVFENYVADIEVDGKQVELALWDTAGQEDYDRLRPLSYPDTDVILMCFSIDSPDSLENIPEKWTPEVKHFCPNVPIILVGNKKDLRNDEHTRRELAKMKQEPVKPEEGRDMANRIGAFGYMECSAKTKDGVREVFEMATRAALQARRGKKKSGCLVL

[1] = target: KRas G12D/Q61H double mutant (Homo sapiens (Human), UniProt P01116, G12D/Q61H); assay: Ras GTP binding domain inhibition assay (labeled GTP); settings: at 20 μM; read-out: KRas G12D Q61H % Inh.
KRas G12D/Q61H double mutant, sequence (P01116-2 other isoform, or with tags, fused parts or gaps G12D/Q61H): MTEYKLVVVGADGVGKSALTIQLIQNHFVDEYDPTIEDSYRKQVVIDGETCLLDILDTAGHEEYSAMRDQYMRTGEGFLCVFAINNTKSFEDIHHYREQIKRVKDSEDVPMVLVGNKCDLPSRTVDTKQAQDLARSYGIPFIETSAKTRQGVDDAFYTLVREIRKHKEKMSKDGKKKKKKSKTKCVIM
Procedure, shortened: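 Labelled-GTP binding: plate-captured His-KRas protein was pre-exposed to compound for 3 h at room temperature (single 20 μM point or dilution series, 1% DMSO, Tris pH 7.5/MgCl2/DTT buffer). Cy3- or Cy5-GTP was then added for 45 min. Washed wells were read for retained fluorescence to give inhibition or IC50.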

inhibition at 20 µM (Rac-1) | inhibition at 20 µM (Rho-A) | inhibition at 20 µM [1] | Compound
25 to 50% | 25 to 50% | 1 to 25% | N#Cc1ccc(CCNC(=O)c2csc3nc(-c4ccccn4)nc(N4CCOCC4)c23)cc1 [drawing 3639]
1 to 25% | 1 to 25% | 1 to 25% | COCCNc1nc(-c2ccccn2)nc(-c2cccc(OCCN(C)C)c2)c1Oc1ccccc1 [drawing 3847]
76 to 100% | 76 to 100% | 51 to 75% | COC(=O)c1c(C)sc2c(O)nc(-c3ccccn3)nc12 [drawing 3792]
51 to 75% | 51 to 75% | 1 to 25% | COCCN(CCOC)c1nc(-c2ccccn2)nc2scc(C(=O)NCCc3ccc(OC)nc3)c12 [drawing 3681]
51 to 75% | 25 to 50% | 1 to 25% | CC(C)(C(=O)Nc1ccnc(-c2ccccn2)n1)c1ccc(C#N)cc1 [drawing 3640]
51 to 75% | 51 to 75% | 25 to 50% | Oc1nc(-c2ccccn2)nc2c(-c3ccc(OC4CCOCC4)cc3)csc12 [drawing 3739]
76 to 100% | 51 to 75% | 51 to 75% | COc1cccc(CC2CN(C(=O)c3csc4c(O)nc(-c5ccccn5)nc34)CCN2)c1 (stereo not drawn) [drawing 3702]
0% | 0% | 1 to 25% | COc1nc(-c2ccccn2)nc2c(C3CC3)csc12 [drawing 3808]
76 to 100% | 51 to 75% | 1 to 25% | O=C(c1csc2c(O)nc(-c3ccccn3)nc12)N1CCOC(CN2CCOCC2)C1 (stereo not drawn) [drawing 3694]
51 to 75% | 25 to 50% | 25 to 50% | COc1cc(C)c(-c2csc3c(O)nc(-c4ccccn4)nc23)cc1C [drawing 3741]
0% | 1 to 25% | 1 to 25% | COc1cnc(CNC(=O)c2sc3c(O)nc(-c4ccccn4)nc3c2C)[nH]c1=O [drawing 3842]
51 to 75% | 51 to 75% | 1 to 25% | Oc1nc(-c2ccccn2)nc2cc(-c3ccccc3Cl)sc12 [drawing 3874]
76 to 100% | 51 to 75% | 1 to 25% | COCCCCN(C)C(=O)c1csc2nc(-c3ccccn3)nc(N3CCOCC3)c12 [drawing 3679]
1 to 25% | 1 to 25% | 1 to 25% | Nc1nc(O)c2sc(-c3cccc(C(=O)N4CCC(O)C4)c3)cc2n1 (stereo not drawn) [drawing 3861]
51 to 75% | 51 to 75% | 1 to 25% | N#Cc1cccc(N2CCN(C(=O)c3csc4c(O)nc(-c5ccccn5)nc34)CC2)c1 [drawing 3644]
51 to 75% | 51 to 75% | 25 to 50% | O=C(NCCc1cnc(O)nc1)c1csc2nc(-c3ccccn3)nc(N3CCS(=O)(=O)CC3)c12 [drawing 3726]
51 to 75% | 76 to 100% | 25 to 50% | O=C(c1csc2c(O)nc(-c3ccccn3)nc12)N1CCN(Cc2ccccc2)CC1 [drawing 3651]
25 to 50% | 25 to 50% | 25 to 50% | Cc1sc2c(N)nc(-c3ccccn3)nc2c1Br [drawing 3765]
25 to 50% | 25 to 50% | 25 to 50% | COc1cnc(CN)[nH]c1=O [drawing 3690]
51 to 75% | 51 to 75% | 0% | N#Cc1ccc(N2CCN(C(=O)c3csc4c(O)nc(-c5ccccn5)nc34)CC2)cc1 [drawing 3645]
76 to 100% | 76 to 100% | 25 to 50% | Oc1nc(-c2ccccn2)nc2c(CC3CNC3)csc12 [drawing 3837]
76 to 100% | 51 to 75% | 0% | COCCCCNC(=O)c1csc2nc(-c3ccccn3)nc(N(CCOC)CCOC)c12 [drawing 3682]
51 to 75% | 51 to 75% | 25 to 50% | Nc1nc(-c2ccccn2)nc2c(Br)csc12 [drawing 3764]
1 to 25% | 1 to 25% | 1 to 25% | Cn1ccnc1-c1nc(O)c2c(-c3ccccc3)c(-c3ccccc3)sc2n1 [drawing 3854]
76 to 100% | 51 to 75% | 25 to 50% | COc1ccc(N2CCN(C(=O)c3csc4c(O)nc(-c5ccccn5)nc34)CC2)c(OC)c1 [drawing 3648]

inhibition at 20 µM (Rac-1) | inhibition at 20 µM (Rho-A) | inhibition at 20 µM [1] | Compound
51 to 75% | 76 to 100% | 25 to 50% | Oc1nc(-c2ccccn2)nc2c(-c3ccc(OC4CCOC4)cc3)csc12 (stereo not drawn) [drawing 3734]
25 to 50% | 25 to 50% | 0% | O=C(NCCc1ccc(O)c(O)c1)c1csc2nc(-c3ccccn3)nc(N3CCOCC3)c12 [drawing 3674]
51 to 75% | 76 to 100% | 25 to 50% | Oc1nc(-c2ccccn2)nc2c(CC3CCCNC3)csc12 (stereo not drawn) [drawing 3807]
76 to 100% | 76 to 100% | 51 to 75% | COC(=O)c1nc(-c2ccccn2)nc(O)c1O [drawing 3865]
51 to 75% | 51 to 75% | 1 to 25% | N#Cc1cccc(CCNC(=O)c2csc3nc(-c4ccccn4)nc(N4CCOCC4)c23)c1 [drawing 3676]
25 to 50% | 25 to 50% | 25 to 50% | CC(C)(C)c1sc2c(O)nc(-c3ccccn3)nc2c1Br [drawing 3872]
76 to 100% | 51 to 75% | 0% | N#Cc1ccc(COCC(=O)Nc2ccnc(-c3ccccn3)n2)cc1 [drawing 3685]
76 to 100% | 76 to 100% | 51 to 75% | COC(=O)c1c(C)sc2c(N)nc(-c3ccccn3)nc12 [drawing 3818]
0% | 0% | 1 to 25% | Cn1cnc(-c2nc(O)c3c(-c4ccccc4)c(-c4ccncc4)sc3n2)c1 [drawing 3846]
0% | 0% | 0% | Nc1nc(O)c2sc(-c3cccc(C(=O)NCc4ncc[nH]4)c3)cc2n1 [drawing 3863]
76 to 100% | 76 to 100% | 1 to 25% | O=C(c1csc2c(O)nc(-c3ccccn3)nc12)N1CCNC(c2ccc(F)cc2)C1 (stereo not drawn) [drawing 3696]
1 to 25% | 1 to 25% | 1 to 25% | N#Cc1cccc(-c2csc3c(O)nc(-c4ccccn4)nc23)c1 [drawing 3822]
51 to 75% | 51 to 75% | 1 to 25% | O=C(NCCc1cccnc1)c1csc2nc(-c3ccccn3)nc(N3CCOCC3)c12 [drawing 3633]
51 to 75% | 51 to 75% | 25 to 50% | Oc1nc(-c2ccccn2)nc2c(-c3ccc(OC4CCCCC4)cc3)csc12 [drawing 3759]
51 to 75% | 51 to 75% | 25 to 50% | Nc1nc(-c2ccccn2)nc2scc(C(=O)O)c12 [drawing 3778]
76 to 100% | 51 to 75% | 1 to 25% | CN(CCc1cccc(C#N)c1)C(=O)c1csc2nc(-c3ccccn3)nc(N3CCOCC3)c12 [drawing 3677]
25 to 50% | 25 to 50% | 1 to 25% | O=C(NCCc1ccnc(O)c1)c1csc2nc(-c3ccccn3)nc(N3CCOCC3)c12 [drawing 3672]
51 to 75% | 51 to 75% | 25 to 50% | O=C(NCCc1ccncn1)c1csc2nc(-c3ccccn3)nc(N3CCOCC3)c12 [drawing 3819]
76 to 100% | 76 to 100% | 25 to 50% | Cc1ccccc1N1CCN(C(=O)c2csc3c(O)nc(-c4ccccn4)nc23)CC1 [drawing 3628]
51 to 75% | 51 to 75% | 25 to 50% | COc1ccc(CCNC(=O)c2csc3nc(-c4ccccn4)nc(N4CCOCC4)c23)cn1 [drawing 3634]
25 to 50% | 51 to 75% | 25 to 50% | Oc1nc(-c2ccccn2)nc2c(-c3ccc(Cl)c(Cl)c3)csc12 [drawing 3781]
25 to 50% | 25 to 50% | 25 to 50% | COc1ccc(C2CN(C(=O)c3csc4c(O)nc(-c5ccccn5)nc34)CCO2)cc1 (stereo not drawn) [drawing 3657]
51 to 75% | 51 to 75% | 51 to 75% | CC(C)(C)c1ccc(-c2csc3c(O)nc(-c4ccccn4)nc23)cc1 [drawing 3719]
51 to 75% | 51 to 75% | 1 to 25% | COCCCCNC(=O)c1csc2nc(-c3ccccn3)nc(N3CCOCC3)c12 [drawing 3678]

Compound | inhibition at 20 µM (Rac-1) | inhibition at 20 µM (Rho-A) | inhibition at 20 µM [1]
O=C(c1csc2c(O)nc(-c3ccccn3)nc12)N1CCN(Cc2cccc(O)c2)CC1 [drawing 3629] | 76 to 100% | 76 to 100% | 76 to 100%
O=C(c1csc2c(O)nc(-c3ccccn3)nc12)N1CCN(c2ccc(O)c(Cl)c2)CC1 [drawing 3692] | 76 to 100% | 76 to 100% | 51 to 75%
COc1ccccc1C1CN(C(=O)c2csc3c(O)nc(-c4ccccn4)nc23)CCO1 (stereo not drawn) [drawing 3656] | 76 to 100% | 76 to 100% | 51 to 75%
